Values quoted from earlier work in US20060024806A1, “Mycolactone locus: an assembly line for producing novel polyketides, therapeutic and prophylactic uses” (priority 2003, published 2006).

Tested on: guinea pig model of the disease
Details: purified mycolactone injected subcutaneously

## CC(=C\C=C\C(C)=C\[C@H](O)[C@@H](O)C[C@H](C)O)/C=C(C)/C=C/C(=O)O[C@H]1CCCC(=O)O[C@@H]([C@@H](C)C/C(C)=C/[C@@H](C)[C@H](O)C[C@@H](C)O)C/C=C(\C)C[C@@H]1C [mycolactone]
  pathology after injection: reproduces the natural pathology
